According to PubChem BioAssay (NCI):
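Protocol summary: plate cells (96-well), add compound at 5 concentrations, incubate 48 h, interpolate endpoints linearly. The concentration for 50% growth inhibition is given as GI50. The concentration for full growth arrest is given as TGI.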

How the values were obtained:
Experiment in all cases: inhibition of tumour cell growth, NCI panel, 48 h
MCF7 breast = tested on: MCF7 breast
SNB-75 CNS = tested on: SNB-75 CNS
UACC-257 melanoma = tested on: UACC-257 melanoma
RPMI-8226 leukemia = tested on: RPMI-8226 leukemia
BT-549 breast = tested on: BT-549 breast
COLO 205 colon = tested on: COLO 205 colon
HCC-2998 colon = tested on: HCC-2998 colon
HOP-62 NSCLC = tested on: HOP-62 NSCLC
SR leukemia = tested on: SR leukemia
PC-3 prostate = tested on: PC-3 prostate
SW-620 colon = tested on: SW-620 colon
DU-145 prostate = tested on: DU-145 prostate
SN12C renal = tested on: SN12C renal
K-562 leukemia = tested on: K-562 leukemia
EKVX NSCLC = tested on: EKVX NSCLC
A549 NSCLC = tested on: A549 NSCLC
U251 CNS = tested on: U251 CNS
M14 melanoma = tested on: M14 melanoma
T-47D breast = tested on: T-47D breast
NCI-H460 lung = tested on: NCI-H460 lung
SF-268 CNS = tested on: SF-268 CNS
MDA-MB-435 = tested on: MDA-MB-435
OVCAR-4 ovarian = tested on: OVCAR-4 ovarian
TK-10 renal = tested on: TK-10 renal
MDA-N = tested on: MDA-N
MOLT-4 leukemia = tested on: MOLT-4 leukemia
A498 renal = tested on: A498 renal
MALME-3M melanoma = tested on: MALME-3M melanoma
NCI-H226 lung = tested on: NCI-H226 lung
OVCAR-3 ovarian = tested on: OVCAR-3 ovarian
OVCAR-8 ovarian = tested on: OVCAR-8 ovarian
SK-MEL-5 melanoma = tested on: SK-MEL-5 melanoma
HT29 colon = tested on: HT29 colon
OVCAR-5 ovarian = tested on: OVCAR-5 ovarian
HOP-92 NSCLC = tested on: HOP-92 NSCLC
KM12 colon = tested on: KM12 colon
NCI-H522 lung = tested on: NCI-H522 lung
HL-60(TB) leukemia = tested on: HL-60(TB) leukemia
SF-539 CNS = tested on: SF-539 CNS
RXF 393 renal = tested on: RXF 393 renal
UO-31 renal = tested on: UO-31 renal
UACC-62 melanoma = tested on: UACC-62 melanoma
MDA-MB-231 breast = tested on: MDA-MB-231 breast
ACHN renal = tested on: ACHN renal
SF-295 CNS = tested on: SF-295 CNS
SK-OV-3 ovarian = tested on: SK-OV-3 ovarian
LOX IMVI melanoma = tested on: LOX IMVI melanoma
NCI/ADR-RES ovarian = tested on: NCI/ADR-RES ovarian
HCT-15 colon = tested on: HCT-15 colon
HS 578T breast = tested on: HS 578T breast
786-0 renal = tested on: 786-0 renal
IGROV1 ovarian = tested on: IGROV1 ovarian
HCT-116 colon = tested on: HCT-116 colon
SK-MEL-28 melanoma = tested on: SK-MEL-28 melanoma
CAKI-1 renal = tested on: CAKI-1 renal
SNB-19 CNS = tested on: SNB-19 CNS
SK-MEL-2 melanoma = tested on: SK-MEL-2 melanoma

`CC(=N\O)/C(C)=N/O.CC(=N\O)/C(C)=N/O.CC(=N\O)/C(C)=N/O.CC(=N\O)/C(C)=N/O.[CH3-].[CH3-].[Co].[Co]` showed a GI50 (MCF7 breast) of 16.9 µM, a TGI (MCF7 breast) of over 100 µM and a GI50 (SNB-75 CNS) of 15.5 µM. The TGI (SNB-75 CNS) was 38.7 µM, the GI50 (UACC-257 melanoma) was 14.8 µM and the TGI (UACC-257 melanoma) was 34.9 µM. The GI50 (RPMI-8226 leukemia) was 12.8 µM, the TGI (RPMI-8226 leukemia) was 44.2 µM and the GI50 (BT-549 breast) was 15.1 µM. It also gave a TGI (BT-549 breast) of 33.8 µM, a GI50 (COLO 205 colon) of 15 µM and a TGI (COLO 205 colon) of 29.8 µM. It also gave a GI50 (HCC-2998 colon) of 13.1 µM, a TGI (HCC-2998 colon) of 26.9 µM and a GI50 (HOP-62 NSCLC) of 14.7 µM. The TGI (HOP-62 NSCLC) was 59.2 µM, the GI50 (SR leukemia) was 16.2 µM and the TGI (SR leukemia) was 50.1 µM. The GI50 (PC-3 prostate) was 21.2 µM, the TGI (PC-3 prostate) was 63.8 µM and the GI50 (SW-620 colon) was 29.4 µM. It also gave a TGI (SW-620 colon) of over 100 µM, a GI50 (DU-145 prostate) of 30.9 µM and a TGI (DU-145 prostate) of over 100 µM. It also gave a GI50 (SN12C renal) of 21.9 µM, a TGI (SN12C renal) of over 100 µM and a GI50 (K-562 leukemia) of 20.4 µM. The TGI (K-562 leukemia) was over 100 µM, the GI50 (EKVX NSCLC) was 18.7 µM and the TGI (EKVX NSCLC) was 64.9 µM. For the same molecule, the GI50 (A549 NSCLC) was 39.5 µM, the TGI (A549 NSCLC) was over 100 µM and the GI50 (U251 CNS) was 11.7 µM. For the same molecule, the TGI (U251 CNS) was 24.1 µM, the GI50 (M14 melanoma) was 13 µM and the TGI (M14 melanoma) was 29.8 µM. It also gave a GI50 (T-47D breast) of 26.5 µM, a TGI (T-47D breast) of over 100 µM and a GI50 (NCI-H460 lung) of 14.6 µM. It also gave a TGI (NCI-H460 lung) of 40.7 µM, a GI50 (SF-268 CNS) of 21.6 µM and a TGI (SF-268 CNS) of 72.3 µM. For the same molecule, the GI50 (MDA-MB-435) was 15 µM, the TGI (MDA-MB-435) was 39.9 µM and the GI50 (OVCAR-4 ovarian) was 21.1 µM. For the same molecule, the TGI (OVCAR-4 ovarian) was 83.5 µM, the GI50 (TK-10 renal) was 28.5 µM and the TGI (TK-10 renal) was 88.8 µM. For the same molecule, the GI50 (MDA-N) was 16.3 µM, the TGI (MDA-N) was over 100 µM and the GI50 (MOLT-4 leukemia) was 23.8 µM. It also gave a TGI (MOLT-4 leukemia) of 72.4 µM, a GI50 (A498 renal) of 32.1 µM and a TGI (A498 renal) of 77.1 µM. It also gave a GI50 (MALME-3M melanoma) of 16.1 µM, a TGI (MALME-3M melanoma) of 30.7 µM and a GI50 (NCI-H226 lung) of 22.8 µM. For the same molecule, the TGI (NCI-H226 lung) was 42.4 µM, the GI50 (OVCAR-3 ovarian) was 15.9 µM and the TGI (OVCAR-3 ovarian) was 78.8 µM. For the same molecule, the GI50 (OVCAR-8 ovarian) was 27.2 µM, the TGI (OVCAR-8 ovarian) was over 100 µM and the GI50 (SK-MEL-5 melanoma) was 15.3 µM. For the same molecule, the TGI (SK-MEL-5 melanoma) was 28.6 µM, the GI50 (HT29 colon) was 23 µM and the TGI (HT29 colon) was 82.5 µM. The GI50 (OVCAR-5 ovarian) was 28.8 µM, the TGI (OVCAR-5 ovarian) was over 100 µM and the GI50 (HOP-92 NSCLC) was 26.2 µM. The TGI (HOP-92 NSCLC) was 71.3 µM, the GI50 (KM12 colon) was 27 µM and the TGI (KM12 colon) was over 100 µM. It also gave a GI50 (NCI-H522 lung) of 12.2 µM, a TGI (NCI-H522 lung) of 27.8 µM and a GI50 (HL-60(TB) leukemia) of 17.6 µM. For the same molecule, the TGI (HL-60(TB) leukemia) was 50.5 µM, the GI50 (SF-539 CNS) was 11.3 µM and the TGI (SF-539 CNS) was 32.1 µM. For the same molecule, the GI50 (RXF 393 renal) was 16.7 µM, the TGI (RXF 393 renal) was 39.9 µM and the GI50 (UO-31 renal) was 19.3 µM. The TGI (UO-31 renal) was 48.5 µM, the GI50 (UACC-62 melanoma) was 15.1 µM and the TGI (UACC-62 melanoma) was 30.5 µM. The GI50 (MDA-MB-231 breast) was 25.3 µM, the TGI (MDA-MB-231 breast) was 76.7 µM and the GI50 (ACHN renal) was 35.4 µM. The TGI (ACHN renal) was over 100 µM, the GI50 (SF-295 CNS) was 22.8 µM and the TGI (SF-295 CNS) was 76.5 µM. It also gave a GI50 (SK-OV-3 ovarian) of 34.5 µM, a TGI (SK-OV-3 ovarian) of over 100 µM and a GI50 (LOX IMVI melanoma) of 14.4 µM. For the same molecule, the TGI (LOX IMVI melanoma) was 31.2 µM, the GI50 (NCI/ADR-RES ovarian) was over 100 µM and the TGI (NCI/ADR-RES ovarian) was over 100 µM. For the same molecule, the GI50 (HCT-15 colon) was 24.8 µM, the TGI (HCT-15 colon) was over 100 µM and the GI50 (HS 578T breast) was 22 µM. For the same molecule, the TGI (HS 578T breast) was 92.5 µM, the GI50 (786-0 renal) was 18.4 µM and the TGI (786-0 renal) was over 100 µM. The GI50 (IGROV1 ovarian) was 28 µM, the TGI (IGROV1 ovarian) was over 100 µM and the GI50 (HCT-116 colon) was 7.75 µM. For the same molecule, the TGI (HCT-116 colon) was over 100 µM, the GI50 (SK-MEL-28 melanoma) was 30.2 µM and the TGI (SK-MEL-28 melanoma) was 90.9 µM. The GI50 (CAKI-1 renal) was 35.5 µM, the TGI (CAKI-1 renal) was over 100 µM and the GI50 (SNB-19 CNS) was 17.6 µM. For the same molecule, the TGI (SNB-19 CNS) was over 100 µM, the GI50 (SK-MEL-2 melanoma) was 11.8 µM and the TGI (SK-MEL-2 melanoma) was 27.5 µM.
